The values that follow come from patent US20050074879A1, “Antisense oligonucleotide modulation of STAT3 expression” (priority 2000, published 2005).

The subject of the data set is Human STAT3 mRNA. Nature of the data set: Inhibition of human STAT3 mRNA levels in A549 cells, 75 nM, real-time PCR (Table 13). It counts as cell-based. The conditions noted are these: 75 nM oligonucleotide with LIPOFECTIN, real-time PCR PPS 199, percent inhibition relative to untreated control cells, average of 2 experiments. Summed up:
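A549 cells at 65–75% confluency were transfected in duplicate with 75 nM oligonucleotide plus […] Lipofectin for 4–7 h at 37° C and harvested 16–24 h later. STAT3 mRNA was quantified by real-time RT-PCR with primer-probe set PPS 199 and normalized to RiboGreen total RNA. Inhibition is relative to untreated controls.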

Oligonucleotides are written 5' to 3', each unit as a sugar letter and its base; * is a phosphorothioate linkage, no mark a phosphodiester; rarer units and linkages stand in square brackets, end groups in braces. Plain capitals give the bases only. e = 2'-O-(2-methoxyethyl) (MOE); [5mC] = 5-methylcytosine; d = 2'-deoxy (DNA)

For “337321 (antisense eA*e[5mC]*e[5mC]*eA*e[5mC]*dA*dA*d[5mC]*dT*dG*dG*d[5mC]*dA*dA*dG*eG*eA*eG*eT*eG) [compound 337321]”, the “% Inhib (inhibition of human STAT 3 mRNA levels)” value (shortened to “% Inhib”) amounted to 80%.

As for “337364 (antisense eG*eG*eT*eG*eA*dG*dG*dG*dA*d[5mC]*dT*d[5mC]*dA*dA*dA*e[5mC]*eT*eG*e[5mC]*e[5mC]) [compound 337364]”, the “% Inhib” value is listed as 70%.

Take “337253 (antisense eA*eA*eA*eT*eG*d[5mC]*dG*dG*dA*d[5mC]*d[5mC]*d[5mC]*dA*dA*dG*eA*eG*eT*eT*eT) [compound 337253]”: the “% Inhib” value turned out to be 49%. Under “337353 (antisense eG*eT*e[5mC]*eG*eT*dT*dG*dG*dT*dG*dT*d[5mC]*dA*d[5mC]*dA*e[5mC]*eA*eG*eA*eT) [compound 337353]” stands 81%. Under “337268 (antisense eG*eA*eT*eA*e[5mC]*d[5mC]*dT*dG*d[5mC]*dT*d[5mC]*dT*dG*dA*dA*eG*eA*eA*eA*e[5mC]) [compound 337268]” stands 75%. Next, “337250 (antisense eA*eT*eT*e[5mC]*eA*d[5mC]*dT*dT*dG*d[5mC]*d[5mC]*dT*d[5mC]*d[5mC]*dT*eT*eG*eA*e[5mC]*eT) [compound 337250]”: 51%; “337352 (antisense eA*eT*eA*eA*eA*d[5mC]*dT*dT*dG*dG*dT*d[5mC]*dT*dT*d[5mC]*eA*eG*eG*eT*eA) [compound 337352]”: 80%. For “337350 (antisense eG*eA*e[5mC]*eA*eA*dT*dA*d[5mC]*dT*dT*dT*d[5mC]*d[5mC]*dG*dA*eA*eT*eG*e[5mC]*e[5mC]) [compound 337350]”, the “% Inhib” value turned out to be 84%. Under “337365 (antisense e[5mC]*eA*eG*eT*e[5mC]*dG*dT*dA*dT*d[5mC]*dT*dT*dT*d[5mC]*dT*eG*e[5mC]*eA*eG*e[5mC]) [compound 337365]” stands 84%; under “337297 (antisense eA*e[5mC]*eG*eT*eT*dA*dT*d[5mC]*d[5mC]*dA*dG*dT*dT*dT*dT*e[5mC]*eT*eA*eG*e[5mC]) [compound 337297]”, 72%; under “337358 (antisense eG*eA*e[5mC]*eA*eT*d[5mC]*dG*dG*d[5mC]*dA*dG*dG*dT*d[5mC]*dA*eA*eT*eG*eG*eT) [compound 337358]”, 77%.

For the substance “337277 (antisense eA*eA*eG*eT*e[5mC]*dA*dT*d[5mC]*d[5mC]*dT*dG*dG*dA*dG*dA*eT*eT*e[5mC]*eT*e[5mC]) [compound 337277]”, the “% Inhib” value worked out at 79%.

“337306 (antisense eG*e[5mC]*eA*e[5mC]*eA*d[5mC]*dT*dT*dT*dA*dA*dT*dT*dT*dT*eA*eA*eG*e[5mC]*eT) [compound 337306]”: the “% Inhib” value was found to be 77%. For the substance “337340 (antisense eA*eT*eT*eT*e[5mC]*dA*dG*d[5mC]*dA*dA*dA*dT*dG*dA*d[5mC]*eA*eT*eG*eT*eT) [compound 337340]”, the “% Inhib” value came to 72%.

On to “337290 (antisense eG*eA*eG*e[5mC]*eA*dT*d[5mC]*dT*dG*dT*dT*d[5mC]*d[5mC]*dA*dG*e[5mC]*eT*eG*e[5mC]*eT) [compound 337290]”, for which the “% Inhib” value is reported as 80%.

For “337374 (antisense eA*eG*eA*e[5mC]*eA*dT*dT*dT*d[5mC]*d[5mC]*dT*dT*dT*dT*dT*e[5mC]*eT*e[5mC]*e[5mC]*e[5mC]) [compound 337374]”, the “% Inhib” value was found to be 67%.

Turning to “337269 (antisense eT*eT*e[5mC]*eT*e[5mC]*dA*dA*dG*dA*dT*dA*d[5mC]*d[5mC]*dT*dG*e[5mC]*eT*e[5mC]*eT*eG) [compound 337269]”, the “% Inhib” value came to 74%. Consider “337274 (antisense eT*eG*eA*eA*eG*dG*dT*dG*d[5mC]*dT*dG*d[5mC]*dT*d[5mC]*d[5mC]*eA*eG*e[5mC]*eA*eT) [compound 337274]”, for which the “% Inhib” value came to 74%.

“337266 (antisense eT*e[5mC]*eG*eT*eA*dG*dA*dT*dT*dG*dT*dG*d[5mC]*dT*dG*eA*eT*eA*eG*eA) [compound 337266]”: the “% Inhib” value is 61%. Under “337259 (antisense e[5mC]*e[5mC]*eA*eT*e[5mC]*d[5mC]*dT*dG*d[5mC]*dT*dA*dA*dA*dA*dT*e[5mC]*eA*eG*eG*eG) [compound 337259]” stands 58%. Under “337286 (antisense eA*eT*eT*e[5mC]*eA*dG*dA*dT*d[5mC]*dT*dT*dG*d[5mC]*dA*dT*eG*eT*e[5mC]*eT*e[5mC]) [compound 337286]” stands 77%. Next, “337329 (antisense eT*eA*eG*e[5mC]*e[5mC]*d[5mC]*dA*dT*dG*dT*dG*dA*dT*d[5mC]*dT*eG*eA*e[5mC]*eA*e[5mC]) [compound 337329]”: 88%; “337363 (antisense eA*eA*e[5mC]*eT*eG*d[5mC]*d[5mC]*d[5mC]*dT*d[5mC]*d[5mC]*dT*dG*d[5mC]*dT*eG*eA*eG*eG*eG) [compound 337363]”: 63%. Take “337345 (antisense eG*eG*eT*eA*eG*d[5mC]*dA*dT*d[5mC]*d[5mC]*dA*dT*dG*dA*dT*e[5mC]*eT*eT*eA*eT) [compound 337345]”: the “% Inhib” value is 86%. Regarding “337252 (antisense e[5mC]*eT*eG*eA*eA*d[5mC]*dT*dT*dA*d[5mC]*d[5mC]*d[5mC]*dT*d[5mC]*dT*eG*eA*eG*eA*eG) [compound 337252]”, the “% Inhib” value is 60%. Under “337335 (antisense eT*e[5mC]*e[5mC]*eA*eG*d[5mC]*d[5mC]*dA*dG*dA*d[5mC]*d[5mC]*d[5mC]*dA*dG*eA*eA*eG*eG*eA) [compound 337335]” stands 86%; under “337315 (antisense eG*eA*eG*eG*e[5mC]*d[5mC]*dT*dT*dG*dG*dT*dG*dA*dT*dA*e[5mC]*eA*e[5mC]*e[5mC]*eT) [compound 337315]”, 46%. Next, “337372 (antisense eA*eT*e[5mC]*eA*eT*dG*dG*dG*dT*d[5mC]*dT*d[5mC]*dA*dG*dA*eG*eA*eA*e[5mC]*eA) [compound 337372]”: 88%; “337381 (antisense eT*eT*eA*eA*eA*dA*dA*dG*dT*dG*d[5mC]*dA*dA*dT*dG*e[5mC]*e[5mC]*eA*eG*eG) [compound 337381]”: 86%; “337347 (antisense eG*e[5mC]*e[5mC]*eT*e[5mC]*d[5mC]*dT*d[5mC]*d[5mC]*dT*dT*dG*dG*dG*dA*eA*eT*eG*eT*e[5mC]) [compound 337347]”: 88%.

For the substance “337298 (antisense eA*eG*eT*eT*eG*dA*dG*dA*dT*dT*d[5mC]*dT*dG*d[5mC]*dT*eA*eA*eT*eG*eA) [compound 337298]”, the “% Inhib” value worked out at 74%.
